Where no end group is shown, it is not given here.
Test system: HFD-fed B6.CD45.1^+ mice
Test: Metabolic indices (ITT, GTT, fasting insulin, body weight) in HFD-fed mice after vTreg53 Treg transfer and immunization
Format: in vivo, mouse
Conditions: n ≥ 7
From the text: Figure 7. Immunization with Fat1562 following vTreg53 Treg transfer ameliorates HFD-induced insulin resistance. (A–F) Metabolic indices of mice treated as in Figure 6A (n ≥ 7). (A) Body weight. (B) Insulin tolerance test (ITT). (C) Area over curve for ITT analysis. (D) Glucose tolerance test (GTT). (E) Area under curve for GTT analysis. (F) Plasma insulin levels after 6 hr of fasting. Data shown are representative of at least two independent experiments. (G) Scheme of the anti-TNFα experiment. (H) Number of total Treg cells in VAT (n ≥ 5). (I) Number of CD11c^hi inflammatory macrophages in VAT (n ≥ 5). (J) ITT (n ≥ 5). (K) Area over curve for ITT analysis (n ≥ 5). Data are mean ± SD. Figure 7—figure supplement 1. Absolute blood glucose levels. ITT analysis of mice transferred with vTreg53 TCR-tg Tregs and immunized with adjuvant/Fat1562 or adjuvant alone. Data shown are representative of at least two independent experiments (n ≥ 5). [drawing 7]
To assess early Treg proliferation following peptide stimulation in vivo, 0.4 million Treg cells were sorted from pooled Spl and LNs of 6-8wk-old male CD45.2^+ Tg^+ Foxp3-GFP^KI/y mice by Moflo, labeled by the CellTrace Violet dye (ThermoFisher Scientific), and were i.v.-injected into 6-8wk old male B6.CD45.1^+ mice. The next day, the recipient mice were injected with 200 µg peptides emulsified in CFA (CFA/peptides) s.c. on the lower back. Proliferation of clonotype^+ Tregs in the spleen was determined three days later. To examine the expansion of VAT-Treg cells by peptide immunization, we sorted 0.4 million Treg cells from pooled Spl/LNs of 6-8wk-old male CD45.2^+ Tg^+ Foxp3-GFP^KI/y mice and transferred them i.v. into 6-8wk old male B6.CD45.1^+ mice. Six weeks later, the recipient mice were immunized with 200 µg CFA/peptides s.c. on the lower back, and one week later were boosted with 100 μg IFA/peptides i.p. After another week, clonotype^+ CD45.2^+ Treg cells from the Spl/LNs or VAT of recipient mice were analyzed by flow cytometry and double-sorted for ultra-low-input RNA-seq. […] One week after the IFA/peptides injection, metabolic parameters (GTT, ITT, fasting plasma insulin levels) and the composition of different immunocytes were determined.
For GTT, mice were fasted for 15 hr overnight, weighed, and tested for fasting blood-glucose concentrations. […] Blood-glucose levels were measured before and 20, 40, 60, 90, and 120 min after glucose injection. […] Blood-glucose levels were measured before and 20, 40, 60, 90, and 120 min after insulin injection, and were normalized to the blood-glucose levels before insulin injection. The area under the curve (for GTT) or area over the curve (for ITT) were calculated using GraphPad Prism 7.0.

In the case of TMYKNPRPMAATG [Fat1562], the “glucose tolerance” value (GTT, 2.0 g glucose per kg i.p., 15 hr fast) was “promoted glucose tolerance”, the “insulin sensitivity” value (ITT, 0.6 U insulin per kg i.p., 6 hr fast) was “improved systemic insulin sensitivity” and the “body weight” value (adjuvant/Fat1562 vs adjuvant alone) was “similar”. The “fasting plasma insulin levels” value (after 6 hr of fasting) was “reduced fasting plasma insulin levels”.

Source: paper PMC7440915, “Discovery of surrogate agonists for visceral fat Treg cells that modulate metabolic indices in vivo” (eLife, 2020)
